In the supplement of paper PMC9549728:
Counter-ions that a name gives are not always drawn.

Assays:
Test in all cases: IC50 (viability, PrestoBlue) (log10 nM)
Details in all cases: exposure time: 72 h
[1] = test system: murine gastric organoid WNT-activated (Apc fl/fl; Tp53 R172H)
Description: (§1)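 Murine gastric corpus organoids (normal uninduced; RAS-activated Kras G12D/Tp53 R172H; diffuse Cdh1/Apc loss; WNT-activated Apc loss/Tp53 R172H) were seeded in Matrigel into pre-spotted 384-well plates. The plates held a 196-compound library at 6.7 nM to 25,004 nM (9 doses) and were incubated 72 h. Viability was read by PrestoBlue fluorescence (560/590 nm). IC50 came from non-linear regression (Prism), reported as log10 IC50 in nM, mean of 3 passages x 2 wells.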

[2] = test system: murine gastric organoid diffuse (Cdh1 fl/fl; Apc fl/fl)
Description: as §1

[3] = test system: murine normal gastric organoid
Description: as §1

[4] = test system: murine gastric organoid RAS-activated (Kras G12D; Tp53 R172H)
Description: as §1

Row | SMILES | IC50 (log10 nM) [1] | IC50 (log10 nM) [2] | IC50 (log10 nM) [3] | IC50 (log10 nM) [4]
1 | Cc1c2oc3c(C)ccc(C(=O)N[C@@H]4C(=O)N[C@H](C(C)C)C(=O)N5CCC[C@H]5C(=O)N(C)CC(=O)N(C)[C@@H](C(C)C)C(=O)O[C@@H]4C)c3nc-2c(C(=O)N[C@@H]2C(=O)N[C@H](C(C)C)C(=O)N3CCC[C@H]3C(=O)N(C)CC(=O)N(C)[C@@H](C(C)C)C(=O)O[C@@H]2C)c(N)c1=O [Actinomycin D] | < 0.826 | < 0.826 | < 0.826 | < 0.826
2 | CC[C@]12C=CCN3CC[C@@]4(c5cc([C@@]6(C(=O)OC)C[C@@H]7C[C@@H](C(C)(F)F)CN(Cc8c6[nH]c6ccccc86)C7)c(OC)cc5N(C)[C@H]4[C@@](O)(C(=O)OC)[C@@H]1OC(C)=O)[C@@H]32 [Vinflunine tartrate] | 1.63 | 2.23 | 2.09 | 2.32
3 | CC(C)C[C@H](NC(=O)CNC(=O)c1cc(Cl)ccc1Cl)B(O)O [Ixazomib (MLN9708)] | 2.6 | 2.51 | 2.8 | 2.12
4 | Cc1sc2c(c1C)C(c1ccc(Cl)cc1)=N[C@@H](CC(=O)Nc1ccc(O)cc1)c1nnc(C)n1-2 [OTX-015] | 2.85 | 2.47 | 2.22 | 3.11
5 | CC(C)(C)c1cc(NC(=O)Nc2ccc(-c3cn4c(n3)sc3cc(OCCN5CCOCC5)ccc34)cc2)no1 [Quizartinib] | 2.01 | 3.09 | 3.06 | < 0.826
6 | COc1cccc2c1C(=O)c1c(O)c3c(c(O)c1C2=O)C[C@@](O)(C(=O)CO)C[C@@H]3O[C@H]1C[C@H](N)[C@H](O)[C@H](C)O1 [Doxorubicin] | 2.2 | 2.23 | 2.02 | 2.14
7 | COc1cc(Nc2ncc(F)c(Nc3ccc4c(n3)N(COP(=O)(O)O)C(=O)C(C)(C)O4)n2)cc(OC)c1OC [R788 disodium hexahydrate] | 2.5 | 2.99 | 3.46 | 3.21
8 | C1=N/C2=N/c3ccc(OCCN4CCCC4)c(c3)COC/C=C/COCc3cccc(c3)C(=C1)N2 [Pacritinib] | 2.91 | 3.48 | 3.23 | 3.76
9 | COc1cc(Nc2ncc3c(n2)-c2ccc(Cl)cc2C(c2c(F)cccc2OC)=NC3)ccc1C(=O)O [Alisertib] | 3.02 | 2.98 | 2.47 | 2
10 | COc1c(OCCCN2CCOCC2)ccc2c1N=C(NC(=O)c1cnc(N)nc1)N1CCN=C21 [Copanlisib] | 1.96 | 2.23 | 1.94 | 2
11 | CC[C@]1(O)C[C@H]2CN(CCc3c([nH]c4ccccc34)[C@@](C(=O)OC)(c3cc4c(cc3OC)N(C=O)[C@H]3[C@@](O)(C(=O)OC)[C@H](OC(C)=O)[C@]5(CC)C=CCN6CC[C@]43[C@@H]65)C2)C1 [Vincristine sulfate] | 2.19 | 1.89 | 1.68 | 2.08
12 | Cc1ccc(C(=O)Nc2ccc(CN3CCN(C)CC3)c(C(F)(F)F)c2)cc1C#Cc1cnc2cccnn12 [Ponatinib] | 1.71 | 3.08 | 3.04 | 3.27
13 | Clc1ccc(Nc2nnc(Cc3ccncc3)c3ccccc23)cc1 [Vatalanib] | 3.61 | 4.26 | 3.55 | 3.75
14 | CC[C@@H]1C(=O)N(C)c2cnc(Nc3ccc(C(=O)N[C@H]4CC[C@H](N5CCN(CC6CC6)CC5)CC4)cc3OC)nc2N1C(C)C [Volasertib] | 2.19 | 2.29 | 1.98 | 2.09
15 | CC(C)C[C@H](NC(=O)[C@H](Cc1ccccc1)NC(=O)c1cnccn1)B(O)O [Bortezomib] | 1.16 | 1.1 | 1.14 | 0.871
16 | Cn1cncc1[C@@](N)(c1ccc(Cl)cc1)c1ccc2c(c1)c(-c1cccc(Cl)c1)cc(=O)n2C [Tipifarnib] | 3.16 | 3.73 | 2.96 | < 0.826
17 | CC[C@]1(O)C[C@@H]2CN(CCc3c([nH]c4ccccc34)[C@@](C(=O)OC)(c3cc4c(cc3OC)N(C)[C@H]3[C@@](O)(C(=O)OC)[C@H](OC(C)=O)[C@]5(CC)C=CCN6CC[C@]43[C@@H]65)C2)C1 [Vinblastine sulfate] | < 0.826 | < 0.826 | < 0.826 | < 0.826
18 | O[C@@H](COc1cccc2ncccc12)CN1CCN([C@@H]2c3ccccc3[C@@H]3[C@H](c4ccccc42)C3(F)F)CC1 [Zosuquidar trihydrochloride] | 4.03 | 4.02 | 3.88 | 4.07
19 | Nc1nc(=S)c2[nH]cnc2[nH]1 [6-Thioguanine] | 1.35 | 4.29 | 3.73 | 3.8

Row | SMILES | IC50 (log10 nM) [1] | IC50 (log10 nM) [2] | IC50 (log10 nM) [3] | IC50 (log10 nM) [4]
20 | O=C(c1ccc(F)c(F)c1Nc1ccc(I)cc1F)N1CC(O)([C@@H]2CCCCN2)C1 [Cobimetinib] | 1.82 | 1.74 | 1.45 | 1.75
21 | C=CC(=O)Nc1cc(Nc2nccc(-c3cn(C)c4ccccc34)n2)c(OC)cc1N(C)CCN(C)C [Osimertinib] | 2.46 | 3.05 | 2.73 | 3.89
22 | COc1cc([C@@H]2c3cc4c(cc3[C@@H](O[C@@H]3O[C@@H]5CO[C@@H](c6cccs6)O[C@H]5[C@H](O)[C@H]3O)[C@H]3COC(=O)[C@H]23)OCO4)cc(OC)c1O [Teniposide] | 2.84 | 2.35 | 1.79 | 1.83
23 | N[C@@H](Cc1ccc(N(CCCl)CCCl)cc1)C(=O)O [Melphalan] | 2.26 | 3.34 | 3.09 | 3.27
24 | Cc1ccc(F)c(NC(=O)Nc2ccc(-c3cccc4[nH]nc(N)c34)cc2)c1 [Linifanib] | 3.77 | 4.2 | 3.7 | 3.05
25 | Nc1nc(Cl)nc2c1ncn2[C@@H]1O[C@H](CO)[C@@H](O)[C@@H]1F [Clofarabine] | 3.27 | 2.97 | 3.15 | 3.04
26 | Nc1ccn([C@@H]2O[C@H](CO)[C@@H](O)[C@@H]2O)c(=O)n1 [Cytarabine] | 2.9 | 2.71 | 2.33 | 2.07
27 | Cn1nccc1Nc1nccc(-c2ccn([C@H](CO)c3ccc(Cl)c(F)c3)c(=O)c2)n1 [GDC-0994] | 2.88 | 3.23 | 3.71 | 4.35
28 | N#CCNC(=O)c1ccc(-c2ccnc(Nc3ccc(N4CCOCC4)cc3)n2)cc1 [CYT387] | 4.05 | 3.58 | 3.48 | 3.51
29 | CCN(CC)CCNC(=O)c1c(C)[nH]c(/C=C2\C(=O)Nc3ccc(F)cc32)c1C [Sunitinib] | 3.94 | 3.92 | 3.8 | 3.93
30 | CN(C)C/C=C/C(=O)Nc1cc2c(Nc3ccc(F)c(Cl)c3)ncnc2cc1O[C@H]1CCOC1 [Afatinib] | 1.27 | 1.95 | 1.55 | 3.6
31 | Nc1ncn([C@@H]2O[C@H](CO)[C@@H](O)[C@H]2O)c(=O)n1 [5-Azacytidine] | 3.58 | 3.5 | 3.78 | 3.64
32 | CCOc1cc2ncc(C#N)c(Nc3ccc(OCc4ccccn4)c(Cl)c3)c2cc1NC(=O)/C=C/CN(C)C [Neratinib] | 2.94 | 3.13 | 2.48 | > 4.4
33 | Cc1nc(C(=O)NCC(=O)O)c(O)c2ccc(Oc3ccccc3)cc12 [Roxadustat (FG-4592)] | 1.23 | 3.27 | 2.38 | < 0.826
34 | COc1cc2nccc(Oc3ccc(NC(=O)Nc4cc(C)on4)c(Cl)c3)c2cc1OC [Tivozanib] | 3.74 | > 4.4 | 2.5 | 3.6
35 | O=C(CCCCCCC(=O)Nc1ccccc1)NO [Vorinostat] | 3.67 | 3.65 | 3.62 | 3.28
36 | C[C@H](NC(=O)/C(C#N)=C/c1cccc(Br)n1)c1ccccc1 [WP1066] | 3.26 | 3.52 | 3.47 | 3.49
37 | O=c1[nH]cc(F)c(=O)[nH]1 [fluorouracil] | 4.09 | 3.28 | 3.4 | 3.32
